Reference: patent US4638005A, “Monoquaternized pyrazinium compounds and their use as electron carriers in photosynthetic processes” (The Coca-Cola Company, priority 1983, dated 1987)

Assays:
nitrogenase [1] = molecular target: T1, nitrogenase (Azotobacter vinelandii, UniProt P00459); experiment: Chloroplast-coupled reduction of acetylene to ethylene by nitrogenase (electron carrier bioassay of Benemann); format: biochemical; conditions: for ACTIVITY RELATIVE TO FERREDOXIN (%) / ACTIVITY (nmoles C2 H4 /mg protein/min): Table I; for ACTIVITY RELATIVE TO FERREDOXIN (%): acetylene reduction to ethylene; for ACTIVITY (nmoles C2 H4 /mg protein/min): illuminated spinach chloroplasts, synthetic carriers 2 mM, clostridial ferredoxin 0.2 mM; for ETHYLENE FORMATION % Ferredoxin Activity: Table III ranking; for % FERREDOXIN ACTIVITY: Table IV, acetylene reduction
T1 construct: the nitrogenase sample was prepared from a culture of Azotobacter vinelandii; endogenous in cells; host or cells: Azotobacter vinelandii culture; French press lysate, 10,000 x g supernatant (crude)
T1 sequence (P00459 2-290 limits assumed): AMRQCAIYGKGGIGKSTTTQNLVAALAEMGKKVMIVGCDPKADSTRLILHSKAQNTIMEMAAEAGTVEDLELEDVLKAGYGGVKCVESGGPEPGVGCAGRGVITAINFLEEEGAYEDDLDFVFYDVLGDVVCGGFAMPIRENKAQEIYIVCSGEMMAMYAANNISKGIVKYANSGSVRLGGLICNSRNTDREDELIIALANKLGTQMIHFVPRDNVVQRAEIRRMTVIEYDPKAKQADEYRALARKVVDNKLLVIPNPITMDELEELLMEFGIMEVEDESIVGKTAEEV
Method: The activity of the pyrazinium compounds as electron carriers in an illuminated photocouple process using isolated chloroplasts and the reductive enzyme catalyst nitrogenease has been determined using the bioassay of Benemann, et al., Proc. Natl. Acad. Sci. USA, 64, 1079(1969). In this method, the carrier activity is measured as a function of nitrogenase reduction of acetylene to ethylene, the rate of production of ethylene being the direct measurement.
(§1) For the bioassay, the nitrogenase sample was prepared from a culture of Azotobacter vinelandii grown to a cell density of about 1 g/l. The cells harvested by centrifugation were broken in a French press, cell debris spun off at 10,000 XG for 1 hr., and the supernatant containing 40 mg/ml protein was used in the bioassay experiments. […] chloroplasts from spinach leaves as described by Benemann were also used. The synthetic carriers were tested in aqueous solutions at concentrations of 2 mM, while the standard, clostridial ferredoxin, was used in 0.2 mM aqueous solution. The concentrations of carriers in the assay mixtures were chosen so as to guarantee carrier saturation conditions. Thus, the observed differences in rates of ethylene production from the substrate acetylene were assigned directly to variations in the efficiency of electron transfer from the illuminated chloroplast to the nitrogenase. The results obtained for acetylene reduction (nitrogen fixation) using the pyrazinium compounds of Examples 1 through 42 are summarized in Table I and are expressed as nmoles of ethylene produced per mg protein per minute.

nitrogenase [2] = molecular target: T1, nitrogenase; experiment: Chloroplast-coupled evolution of hydrogen by nitrogenase in the absence of substrate; format: biochemical; conditions: Table II, hydrogen evolution; for ACTIVITY (nmoles H2 /mg protein/min): no nitrogen or acetylene, synthetic carriers 2 mM, ferredoxin 0.2 mM
Method: as §1
It has been recognized for sometime the connection existing between hydrogen metabolism and nitrogen fixation. […] When nitrogenase was purified extensively, as mentioned above, it became apparent that in addition to nitrogen, nitrogenase also catalyzed the reduction of protons. The evolution of hydrogen is particularly active in the absence of the normal substrates for nitrogenase (nitrogen, acetylene, cyanide, azide, etc.), and is dependent upon a strong reductant and adenosine triphosphate hydrolysis. Since hydrogen evolution is not inhibited by CO, but reduction of nitrogen and other substrates is, the reduction of protons presumably occurs at a site other than the site of nitrogen reduction, H. C. Winter, et. al., Ann Rev. Biochem, 45, 409 (1976). Accordingly, with the same bioassay system and with exclusion of nitrogen, and acetylene, the activity of the pyrazinium compounds to act as carriers for production of hydrogen has been determined.
The results of this study, which are summarized in Table II, indicate that the pyrazinium salts that mediate the reduction of acetylene with electrons from the photoexcited chloroplast, are also mediating the reduction of protons by the nitrogenase.

[3] = Polarographic half-wave potential (first wave reduction); format: physicochemical; conditions: 0.1 M phosphate buffer pH 7.55, 25° C.
Excerpt: Sci., 65, 1471(1976). Therefore, it was of interest to measure polarographically the half-wave potentials of the several pyrazinium salts under consideration, to determine the possible effect of structure upon their redox potentials.

Structure (SMILES): C[n+]1ccnc(CCS(=O)(=O)[O-])c1 [Compound 2600]
- ACTIVITY RELATIVE TO FERREDOXIN (%) (nitrogenase [1]): 98%
- ACTIVITY (nmoles C2 H4 /mg protein/min) (nitrogenase [1]): 13.2 nmoles C2 H4 /mg protein/min
- ETHYLENE FORMATION % Ferredoxin Activity (nitrogenase [1]): 98%
- % FERREDOXIN ACTIVITY (nitrogenase [1]): 98%
- ACTIVITY RELATIVE TO FERREDOXIN (%) (nitrogenase [2]): 154%
- ACTIVITY (nmoles H2 /mg protein/min) (nitrogenase [2]): 41.2 nmoles H2 /mg protein/min
- E1/2 vs. SCE (mV) [3]: -730 mV

Structure (SMILES): CCCC(c1c[n+](C)ccn1)S(=O)(=O)[O-] (stereo not shown) [Compound 1200]
- ACTIVITY RELATIVE TO FERREDOXIN (%) (nitrogenase [1]): 107%
- ACTIVITY (nmoles C2 H4 /mg protein/min) (nitrogenase [1]): 14.5 nmoles C2 H4 /mg protein/min
- ETHYLENE FORMATION % Ferredoxin Activity (nitrogenase [1]): 107%
- % FERREDOXIN ACTIVITY (nitrogenase [1]): 107%
- ACTIVITY RELATIVE TO FERREDOXIN (%) (nitrogenase [2]): 143%
- ACTIVITY (nmoles H2 /mg protein/min) (nitrogenase [2]): 38.1 nmoles H2 /mg protein/min
- E1/2 vs. SCE (mV) [3]: -699 mV

Structure (SMILES): C[n+]1ccnc(CCO)c1.[I-] [Compound 300, 1-Methyl-3-(2-hydroxyethyl)pyrazinium iodide]
- ACTIVITY RELATIVE TO FERREDOXIN (%) (nitrogenase [1]): 41%
- ACTIVITY (nmoles C2 H4 /mg protein/min) (nitrogenase [1]): 5.5 nmoles C2 H4 /mg protein/min
- ETHYLENE FORMATION % Ferredoxin Activity (nitrogenase [1]): 41%
- % FERREDOXIN ACTIVITY (nitrogenase [1]): 41%
- ACTIVITY RELATIVE TO FERREDOXIN (%) (nitrogenase [2]): 30%
- ACTIVITY (nmoles H2 /mg protein/min) (nitrogenase [2]): 8.1 nmoles H2 /mg protein/min
- E1/2 vs. SCE (mV) [3]: -683 mV

Structure (SMILES): C[n+]1ccnc(C(C)(C)[N+](=O)[O-])c1.[I-] [Compound 3700, 1-Methyl-3-(1-nitroisopropyl)pyrazinium iodide]
- ACTIVITY RELATIVE TO FERREDOXIN (%) (nitrogenase [1]): 31%
- ACTIVITY (nmoles C2 H4 /mg protein/min) (nitrogenase [1]): 4.2 nmoles C2 H4 /mg protein/min
- ETHYLENE FORMATION % Ferredoxin Activity (nitrogenase [1]): 31%
- % FERREDOXIN ACTIVITY (nitrogenase [1]): 31%
- ACTIVITY RELATIVE TO FERREDOXIN (%) (nitrogenase [2]): 32%
- ACTIVITY (nmoles H2 /mg protein/min) (nitrogenase [2]): 8.6 nmoles H2 /mg protein/min
- E1/2 vs. SCE (mV) [3]: -701 mV

Structure (SMILES): C[n+]1ccnc(CS(=O)(=O)[O-])c1 [Compound 2800]
- ACTIVITY RELATIVE TO FERREDOXIN (%) (nitrogenase [1]): 61%
- ACTIVITY (nmoles C2 H4 /mg protein/min) (nitrogenase [1]): 8.3 nmoles C2 H4 /mg protein/min
- ETHYLENE FORMATION % Ferredoxin Activity (nitrogenase [1]): 61%
- % FERREDOXIN ACTIVITY (nitrogenase [1]): 61%
- ACTIVITY RELATIVE TO FERREDOXIN (%) (nitrogenase [2]): 140%
- ACTIVITY (nmoles H2 /mg protein/min) (nitrogenase [2]): 37.3 nmoles H2 /mg protein/min
- E1/2 vs. SCE (mV) [3]: -690 mV

Structure (SMILES): C[n+]1ccnc(CCC(N)=O)c1 [Compound 4000, 1-Methyl-3-(2-carboxamidoethyl)pyrazinium iodide]
- ACTIVITY RELATIVE TO FERREDOXIN (%) (nitrogenase [1]): 28%
- ACTIVITY (nmoles C2 H4 /mg protein/min) (nitrogenase [1]): 3.8 nmoles C2 H4 /mg protein/min
- ETHYLENE FORMATION % Ferredoxin Activity (nitrogenase [1]): 28%
- % FERREDOXIN ACTIVITY (nitrogenase [1]): 28%
- ACTIVITY RELATIVE TO FERREDOXIN (%) (nitrogenase [2]): 36%
- ACTIVITY (nmoles H2 /mg protein/min) (nitrogenase [2]): 9.5 nmoles H2 /mg protein/min
- E1/2 vs. SCE (mV) [3]: -685 mV

Structure (SMILES): CCC(O)Cc1c[n+](C)ccn1.[I-] (stereo not shown) [Compound 3400, 1-Methyl-3-(2-hydroxybutyl)pyrazinium iodide]
- ACTIVITY RELATIVE TO FERREDOXIN (%) (nitrogenase [1]): 20%
- ACTIVITY (nmoles C2 H4 /mg protein/min) (nitrogenase [1]): 2.7 nmoles C2 H4 /mg protein/min
- ETHYLENE FORMATION % Ferredoxin Activity (nitrogenase [1]): 20%
- % FERREDOXIN ACTIVITY (nitrogenase [1]): 20%
- ACTIVITY RELATIVE TO FERREDOXIN (%) (nitrogenase [2]): 111%
- ACTIVITY (nmoles H2 /mg protein/min) (nitrogenase [2]): 29.7 nmoles H2 /mg protein/min
- E1/2 vs. SCE (mV) [3]: -680 mV
